Data: patent US6521640B1, “Method for interviewing neuronal death using sulfasalazine” (Neurotech Co., Ltd., priority 2000, dated 2003)

Key:
cortical cell cultures [1] = assay: NMDA-induced 45Ca2+ uptake; type: cell-based, mouse; settings: for 45Ca2+ influx after NMDA: 300 μM NMDA, 10 min
Description: FIG. 5 is a graph plotting effects of sulfasalazine against NMDA-induced ^45Ca^2+ uptake. Cortical cell cultrues (DIV 12-14) were exposed to a sham wash (control) or 300 μM NMDA, alone or in the presence of 30-1000 μM sulfasalazine. Ca^2+ influx was analyzed 10 min later by measuring ^45Ca^2+ influx, mean ± S.E.M. (n=12 cultures per condition). Asterisk indicates significant difference from relevant control (NMDA alone), at ρ<0.05 using ANOVA and Student-Neuman-Keuls' test.
Primary cortical cell cultrues from embryonic mice were prepared and used to examine neuroprotective action of compounds. Mouse cortical cell culture system has been extensively used to study mechanisms and pharmacological intervention of neuronal death in neurological diseases. In brief, mouse cerebral coritces were removed from brains of the 15 day—old—fetal mice, in accordance with a protocol approved by our institutional animal care committee. The neocortices were gently triturated and plated on 24 well plates (5 hemispheres/plate) precoated with 100 μg/ml poly-D-lysine and 4 μg/ml laminine. Plating media consist of Eagles minimal essential media (MEM, Earles salts, supplied glutamine-free) supplemented with 5% horse serum, 5% fetal bovine serum, 2 mM glutamine, and 21 mM glucose. Cultures were maintained at 37° C. in a humidified 5% CO2 atmosphere. After 7 days in vitro (DIV 7), cultures were shifted into a growth medium identical to the plating medium but lacking fetal serum. At DIV 7-9, […] cytosine arabinofuranoside was included to halt overgrowth of glia. Mixed cultures of neurons and glia were then fed twice a week.
To analyze Ca^2+ uptake, cortical cell cultures (DIV 13-14) were added with 300 μM NMDA and 1.5 μCi ^45Ca^2+ for 10 min, washed thoroughly with HCSS, and lysed in 0.2% SDS. Levels of ^45Ca^2+ in the lysates were read in a Beckman Scintillation counter.

[2] = man, 3-5 hrs after oral ingestion of a single 4 g dose; cited from earlier work
cortical cell cultures [3] = assay: Zn2+ entry into cortical cells (TSQ fluorescence); type: cell-based, mouse
Description: FIG. 10 is a graph plotting effects of sulfasalazine reducing Zn^2 entry into cortical cells. Sister cultures were exposed to 300 μM Zn^2+ for 30 min, alone or with inclusion of 30-300 μM sulfasalazine. Zn^2+ entry was assessed 30 min later by measuring fluorescence intensity of TSQ, a Zn^2+ chelating agent. (n=8 culture wells per condition). Asterisk indicates significant difference from relevant control (Zn^2 alone) at ρ<0.05, using ANOVA and Student-Neuman-Keuls' test.
(§1) Primary cortical cell cultrues from embryonic mice were prepared and used to examine neuroprotective action of compounds. Mouse cortical cell culture system has been extensively used to study mechanisms and pharmacological intervention of neuronal death in neurological diseases. In brief, mouse cerebral coritces were removed from brains of the 15 day—old—fetal mice, in accordance with a protocol approved by our institutional animal care committee. […]
Entry and accumulation of Zn^2+ into neurons were analyzed using TSQ (N-(6-methoxy-8-quinolyl)-p-toluene sulfonamide), a membrane-permeable Zn^2+-chelating dye (Weiss J H, Hartley D M, Koh J Y, Choi D W, 1993, Neuron, 10:43-49). Cultures were incubated in HCSS containing 0.01% TSQ for 5 min, observed under fluorescence microscopy with a UV filter (excitation 365 nm, dichroic 400 nm, barrier 450 nm), and the intensity of TSQ was analyzed using a fluorescence plate reader.

[4] = system: cocultures of cortical neurons and glia; assay: BSO-induced free radical neuronal death (LDH); type: cell-based, mouse; settings: 10 mM BSO; 30-300 μM sulfasalazine concurrent
Description: FIG. 7 is a graph plotting a dose-response effect of sulfasalazine against neuronal death following 24 hr-exposure to 10 mM BSO. Cortical cell cultures (DIV 12-14) were exposed to 10 mM L-buthionine-(S,R)-sulfoximine (BSO), alone or with 30-300 μM sulfasalazine. Neuronal death was assessed 24 hr later by measurement of LDH released into the bathing medium, mean ± SEM (n=8 culture wells per condition). Asterisk indicates significant difference from relevant control (BSO alone) at ρ<0.05, using ANOVA and Student-Neuman-Keuls' test.
as §1, with “committee. The neocortices were gently triturated and plated on 24 well plates (5 hemispheres/plate) precoated with 100 μg/ml poly-D-lysine and 4 μg/ml laminine.” for “committee.”
(§2) Overall cell injury was assessed microscopically under phase-contrast optics or by measuring amount of lactate dehydrogenase (LDH) released into the bathing medium 24 hr after neurotoxic insults as previously described (Koh and Choi, J Neurosci Methods 20:83-90, 1987). […]

[5] = system: cocultures of mouse cortical neurons and glia; assay: NMDA-induced neuronal death (LDH efflux) in cortical cell cultures; type: cell-based; settings: for NMDA neurotoxicity (neuronal death 24 hr later): 300 μM NMDA for 10 min
Description: FIG. 2 is a graph plotting a dose-response effect of sulfasalazine against neuronal death 24 hr following a brief exposure to 300 μM NMDA. Cocultures of mouse cortical neurons and glia (DIV 12-14) were exposed to 300 μM NMDA for 10 min, alone or with inclusion of 10-1000 μM sulfasalazine. Neuronal death was analyzed by measuring LDH efflux into the bathing medium 24 hr later, mean ± S.E.M. (n−8−16 cultrues per condition), scaled to the mean LDH value corresponding to the near-complete neuronal death induced by 24 hr exposure to 500 μM NMDA (=100%). Asterisk indicates significant difference from relevant control (NMDA alone), at ρ<0.05 using ANOVA and Student-Neuman-Keuls' test.
FIG. 3 is a graph plotting neuroprotective effects of sulfasalazine against dose-dependent neurotoxicity by NMDA. Cortical cell cultures were exposed to 30-1000 μM NMDA for 10 min, alone or in the presence of 300 or 1000 μM sulfasalazine. Neuronal death was analyzed by measuring LDH efflux into the bathing medium 24 hr later, mean ± S.E.M. (n=8−16 cultures per condition). Asterisk indicates significant difference from relevant control (NMDA alone), at ρ<0.05 using ANOVA and Student-Neuman-Keuls' test.
as §1, with “committee. The neocortices were gently triturated and plated on 24 well plates (5 hemispheres/plate) precoated with 100 μg/ml poly-D-lysine and 4 μg/ml laminine.” for “committee.”
as §2

cortical cell cultures [6] = assay: Zn2+ neurotoxicity (LDH); type: cell-based, mouse; settings: 300 μM Zn2+ for 30 min; 10-100 μM sulfasalazine concurrent
Description: FIG. 9 is a graph plotting a dose-response effect of sulfasalazine against neuronal death 24 hr following exposure to 300 μM Zn^2+ for 30 min. Cortical cell cultures were exposed to 30-500 μM Zn^2+ for 30 min, alone (filled circles) or with inclusion of 100 μM sulfasalazine (open circles). Neuronal death was assessed 24 hr later by measurement of LDH released into the bathing medium, mean ± SEM (n=8 culture wells per condition). Asterisk indicates significant difference from relevant control (Zn^2+ alone) at ρ<0.05, using ANOVA and Student-Neuman-Keuls' test.
as §1, §2

cortical neurons = assay: NMDA-induced accumulation of intracellular free Ca2+ (fluo-3); type: cell-based, mouse; settings: 300 μM NMDA; 300 μM sulfasalazine
Description: FIG. 4 is a graph plotting effects of sulfasalazine against NMDA-induced accumulation of intracellular free Ca^2+. […] [Ca^2+], was analyzed in fluo-3-loaded neutrons immediately after treatment, mean ± S.E.M. (n÷55−94 randomly chosen neurons in 4-6 glass bottom dishes per condition), scaled to [Ca^2+], after the sham control (÷100%). Asterisk indicates significant difference from relevant control (NMDA alone), at ρ<0.05 using ANOVA and Student-Neuman-Keuls' test.
as §1, with “committee. The neocortices were gently triturated and plated on 24 well plates (5 hemispheres/plate) precoated with 100 μg/ml poly-D-lysine and 4 μg/ml laminine.” for “committee.”
Levels of intracellular free Ca^2+ ([Ca^2+]i) were analyzed using a Ca^2+ sensitive indicator flou-3 under a fluorescence microphotometry (Minta A. Kao J P. Tsien R Y. 1989, J Bio Chem. 264:8171-8178). […] The fluroescence images were analyzed using a QuantiCell 700 system (Applied Imaging, England).

cortical cell cultures [7] = assay: Fe2+-induced production of reactive oxygen species (DCDHF fluorescence); type: cell-based, mouse
Description: FIG. 8 is a graph plotting effects of sulfasalazine against Fe^2+-induced production of reactive oxygen species. Cortical cell cultures (DIV 13-14) were exposed to a sham wash (control) or 50 μM Fe^2+, alone or with 100 μM sulfasalazine for the indicated points of time. Levels of ROS in neurons were analyzed by monitoring the fluorescent signal of oxidized DCDHF, mean ± S.E.M. (n=53−80 neurons randomly chosen under a phase-contrast optic). Asterisk indicates significant difference from the relevant control (Fe^2+ alone in each time point) at ρ<0.05 using ANOVA and Student-Neuman-Keuls' test.
Primary cortical cell cultrues from embryonic mice were prepared and used to examine neuroprotective action of compounds. […]
To analyze reactive oxygen species in cortical cells, cortical cultures were loaded with 10 μM 6-carboxy-2′,7′-dichlorodihydrofluorescein diacetate (DCDHF-DA) plus 2% Pluronic F-127 in HCSS solution containing (120 mM NaCl, 5 mM KCl, 1.6 mM MgCl2, 2.3 mM CaCl2, 15 mM Glucose, 20 mM HEPES, 10 mM NaOH) for 20 minutes at 37° C., washed three times with HCSS solution, and the fluorescence signal of DCF (Ex 1=488 nm, Em 1=510 nm), the oxidation product of DCDHF-DA, was analyzed on the stage of a Nikon Diaphot inverted microscope equipped with a 100W Xenon lamp and a Nikon 20X, 0.4 N.A. objective.

[8] = system: cocultures of cortical neurons and glia; assay: Fe2+-induced free radical neuronal death (LDH); type: cell-based, mouse; settings: 50 μM Fe2+; 30-300 μM sulfasalazine concurrent
Description: FIG. 6 is a graph plotting a dose-response effect of sulfasalazine against neuronal death following 24 hr-exposure to 50 μM Fe^2+. […] Neuronal death was assessed 24 hr later by measurement of LDH released into the bathing medium, means ± S.E.M. (n=4 12 culture wells per condition). Asterisk indicates significant difference from relevant control (Fe^2+ alone) at ρ<0.05, using ANOVA and Student-Neuman-Keuls' test.
as §1, with “committee. The neocortices were gently triturated and plated on 24 well plates (5 hemispheres/plate) precoated with 100 μg/ml poly-D-lysine and 4 μg/ml laminine.” for “committee.”
as §2

cortical cell cultures [9] = assay: Neuronal death after oxygen and glucose deprivation (LDH); type: cell-based, mouse; settings: 300 μM sulfasalazine
Description: FIG. 11 is a graph plotting neuroprotective effects of sulfasalazine against deprivation of oxygen and glucose. Cortical cell cultures (DIV 14) were deprived of oxygen and glucose (OGD) for 45, 60 or 90 min, alone (black bars) or with inclusion of 300 μM sulfasalazine (gray bars). Neuronal death was assessed 24 hr later by measurement of LDH released into the bathing medium, mean ± SEM (n=4 culture wells per condition). Asterisk indicates significant difference from relevant control (OGD alone) at ρ<0.05, using ANOVA and Student-Neuman-Keuls' test.
Primary cortical cell cultrues from embryonic mice were prepared and used to examine neuroprotective action of compounds. Mouse cortical cell culture system has been extensively used to study mechanisms and pharmacological intervention of neuronal death in neurological diseases. […]
Oxygen or glucose deprivation: cortical cell cultures (DIV 15-17) were transferred to an anacrobic chamber containing 5% CO2, 10% H2, and 85% N2 as described before (Gwag B J, Lobner D, Koh J Y, Wie M B, and Choi D W, 1995, Neuroscience, 68:615-619). […] Neuronal injury was quantified 24 hr later.
as §2

With `O=C(O)c1cc(/N=N/c2ccc(S(=O)(=O)Nc3ccccn3)cc2)ccc1O` [sulfasalazine] the “45Ca2+ influx after NMDA” value (cortical cell cultures [1]; 300 μM sulfasalazine) was “partially reduced”, the “45Ca2+ influx after NMDA” value (cortical cell cultures [1]; 1000 μM sulfasalazine) was “completely blocked” and the “doses preventing influx and accumulation of Ca2+” value (cortical cell cultures [1]; summary statement) was 30-1,000 μM. For the same compound, the serum concentrations [2] was “approximately 500 μM”, the “Zn2+ entry” value (cortical cell cultures [3]; 300 μM Zn2+ for 30 min, 300 μM sulfasalazine) was “slightly but significantly reduced” and the “doses preventing influx and accumulation of Zn2+” value (cortical cell cultures [3]; summary statement) was 30-1,000 μM. For the same compound, the “neuronal death 24 hr following continuous exposure to BSO” value [4] was “dose-dependently reduced”, the “NMDA neurotoxicity (neuronal death 24 hr later)” value ([5]; 1 mM sulfasalazine) was “completely blocked” and the “NMDA neurotoxicity (neuronal death 24 hr later)” value ([5]; 100-300 μM sulfasalazine concurrent) was “partially reduced”. The “neuroprotective effects with increasing doses of NMDA” value ([5]; NMDA up to 1 mM for 10 min, 300 or 1000 μM sulfasalazine) was “did not interfere with the neuroprotective effects”, the “Zn2+ neurotoxicity” value (cortical cell cultures [6]) was “reduced Zn^2+ neurotoxicity in a dose-dependent manner” and the “NMDA-induced accumulation of [Ca2+]i” value (cortical neurons) was “markedly reduced”. The “production of ROS following exposure to Fe2+” value (cortical cell cultures [7]; 50 μM Fe2+, 100 μM sulfasalazine) was “reduced production of ROS”, the “doses scavenging reactive oxygen species” value (cortical cell cultures [7]; summary statement) was 3 to 100 µM and the “neuronal death 24 hr following continuous exposure to Fe2+” value [8] was “dose-dependently reduced”. The “neuroprotective effects after prolonged deprivation of oxygen and glucose” value (cortical cell cultures [9]; OGD extended to 90 min) was “decreased” and the “neuronal death following deprivation of oxygen and glucose” value (cortical cell cultures [9]; OGD for 45-60 min) was “markedly reduced”.
